The values that follow are results of earlier work, collected in patent publication US8703719B1, “Method and composition for improved muscle performance” (Bio-Engineered Supplements and Nutrition, Inc., priority 2009, dated 2014).

For the series the following is noted: oral; weight training individuals.

For `C[N+](C)(C)CC(=O)[O-]` [trimethylglycine (betaine), Trimethylglycine], the “increase in bench-throw power compared with placebo” value is 16% and the “increase in isometric bench-press force compared with placebo” value was 28%.
